US12110286B2, “Benzimidazolone derived inhibitors of BCL6” (Cancer Research Technology Limited, priority 2017, dated 2024)
Like-named read-outs stand apart in the source and are kept apart here.

How the values were obtained:
[1] = molecular target: BCL6-NCOR2(SMRT) corepressor protein-protein interaction (Homo sapiens (Human), UniProt P41182); assay: NanoBRET cell assay; type: cell-based; details: transfected HEK293T cells, 6 hr; for IC50: read-out: NanoBRET cell pIC50 (converted)
Protocol: A cellular nano-Bioluminescence Resonance Energy Transfer (nanoBRET) assay (Promega NanoBRET Nano-Glo Detection System, catalogue number N1662) was used to detect inhibition of the BCL6-NCOR2(SMRT) corepressor protein-protein interaction. DNA encoding full length BCL6 and NCOR2 were inserted into pFC32K.NanoLuc and pFC14K.HaloTag vectors (Promega) to produce C-terminal tagged fusion proteins BCL6-nanoLuc and NCOR2-HaloTag, respectively. HEK293T cells were plated (5×10^5) in T75 tissue culture flask and bulk transfected 48 hours later with Fugene 6 (Promega cat. #E2691) reagent and 18 μg total DNA plasmids encoding BCL6-nanoLuc as donor and NCOR2-HaloTag as acceptor, at a donor:acceptor DNA ratio of 1:25. At 24 hr post-transfection, HEK293T cells were collected and stored in liquid nitrogen in 90% FBS (PAN Biotech UK) and 10% DMSO. […] Frozen transfected HEK293T cells were thawed, centrifuged and freezing medium was replaced by phenol red-free OptiMEM+4% FBS (Life Technology). […] Cells were incubated for 6 hr at 37° C./5% C02 then NanoBRET furimazine substrate (Promega) was added to give a final concentration of 10 μM. After a short centrifugation the plates were read on an Envision (Perkin Elmer) plate reader equipped with a LUM/D600 Dual mirror, Lum 450/40 nm bandpass and D605 nm longpass filters, with a 0.2 sec reading to determine the BRET ratio. The % inhibition at each test concentration was calculated by normalising the BRET ratio to the appropriate high and low controls.

[2] = molecular target: Trx-6×His-BCL6 (human BCL6 BTB domain covering amino-acid sequence 5-129) (Homo sapiens (Human), UniProt P41182); assay: HTRF in vitro assay (BCL6 / BCOR-AF633 peptide); type: binding; details: for IC50: read-out: HTRF pIC50 (converted)
Protocol: The % inhibition at each concentration was calculated by normalising FRET ratio to the appropriate high (DMSO with all reagents) and low (DMSO without BCL6) controls.

[3] = further generated data, 1 nM Trx-6×His-BCL6, 300 nM BCOR-AF633 peptide, 0.5 nM anti-6×His-Terbium cryptate
[4] = initially generated data, 10 nM Trx-6×His-BCL6, 300 nM BCOR-AF633 peptide, 1 nM anti-6×His-Terbium cryptate

Compound	NanoBRET cell pIC50 ([1]; further generated data)	IC50 ([1]; initially generated data)	HTRF pIC50 [2, 3]	HTRF pIC50 [2, 4]	IC50 ([1]; further generated data)	IC50 [2, 3]
CNC(=O)c1cc(Nc2ccc3c(c2)n(CCC(C)(C)O)c(=O)n3C)c(C#N)c(Cl)n1 [Example 1a, 6-Chloro-5-cyano-4-[[3-(3-hydroxy-3-methyl-butyl)-1-methyl-2-oxo-benzimidazol-5-yl]amino]-N-methyl-pyridine-2-carboxamide]	5.45	3.55 µM	6.22	6.48		
Cc1cc(Nc2ccc3c(c2)n(CCC(C)(C)O)c(=O)n3C)c(C#N)c(Cl)n1 [Example 1b, 2-chloro-4-[[3-(3-hydroxy-3-methyl-butyl)-1-methyl-2-oxo-benzimidazol-5-yl]amino]-6-methyl-pyridine-3-carbonitrile]	5.28	5.25 µM		6.09		
CNC(=O)c1cc(Nc2ccc3c(c2)n(CC[C@@H](C)O)c(=O)n3C)c(C#N)c(Cl)n1 [Example 4, 6-Chloro-5-cyano-4-[[3-[(3R)-3-hydroxybutyl]-1-methyl-2-oxo-benzimidazol-5-yl]amino]-N-methyl-pyridine-2-carboxamide]	5.20	6.31 µM	5.79	5.99		
Cc1cc(C)n(-c2ncc(Cl)c(Nc3ccc4c(c3)n(CCC(C)(C)O)c(=O)n4C)n2)n1 [Example 15a, 5-[[5-Chloro-2-(3,5-dimethylpyrazol-1-yl)pyrimidin-4-yl]amino]-3-(3-hydroxy-3-methyl-butyl)-1-methyl-benzimidazol-2-one]		2.04 µM	6.61	6.56	1.78 µM	
CCOC(=O)c1c(C)nn(-c2ncc(Cl)c(Nc3ccc4c(c3)n(CCC(C)(C)O)c(=O)n4C)n2)c1C [Example 15c]			6.22		2.04 µM	
Cn1c(=O)n(CCC(C)(C)O)c2cc(Nc3nc(-n4ccc(C(F)(F)F)n4)ncc3Cl)ccc21 [Example 15d]			6.41		1.29 µM	
COCC(C)(O)CCn1c(=O)n(C)c2ccc(Nc3nc(N4CCC(C(=O)N(C)C)CC4)ncc3Cl)cc21 (stereo not drawn) [Example 15i]			6.75		2.19 µM	
CCC(C)(O)CCn1c(=O)n(C)c2ccc(Nc3nc(N4CCC(C(=O)N(C)C)CC4)ncc3Cl)cc21 (stereo not drawn) [Example 15l]			6.63		1.32 µM	
Cc1nn(-c2ncc(Cl)c(Nc3ccc4c(c3)n(CCC(C)(C)O)c(=O)n4C)n2)c(C)c1Cl [Example 15n]			6.35		1.82 µM	
Cn1c(=O)n(CCC(C)(C)O)c2cc(Nc3nc(-c4n[nH]c5ccccc45)ncc3Cl)ccc21 [Example 17a, 5-((5-chloro-2-(1H-indazol-3-yl)pyrimidin-4-yl)amino)-3-(3-hydroxy-3-methylbutyl)-1-methyl-1,3-dihydro-2H-benzo[d]imidazol-2-one]					1.15 µM	0.537 µM
Cn1c(=O)n(CCC(C)(C)O)c2cc(Nc3nc(-n4ncc5ccccc54)ncc3Cl)ccc21 [Example 17b, 5-((5-chloro-2-(1H-indazol-1-yl)pyrimidin-4-yl)amino)-3-(3-hydroxy-3-methylbutyl)-1-methyl-1,3-dihydro-2H-benzo[d]imidazol-2-one]			6.21		1.91 µM	
CN(C)C(=O)C1CCN(c2ncc(Cl)c(Nc3ccc4c(c3)n(CCC(C)(C)O)c(=O)n4C)n2)CC1 [Example 20c]			6.60		2.14 µM	
C[C@@H]1CN(c2ncc(Cl)c(Nc3ccc4c(c3)n(CCC(C)(C)O)c(=O)n4C)n2)C[C@H](C2CC2)O1 [Example 21a, 5-((5-chloro-2-((2S,6R)-2-cyclopropyl-6-methylmorpholino)pyrimidin-4-yl)amino)-3-(3-hydroxy-3-methylbutyl)-1-methyl-1,3-dihydro-2H-benzo[d]imidazol-2-one]					1.35 µM	0.1 µM
C[C@@H]1CN(c2ncc(Cl)c(Nc3ccc4c(c3)n(CCC(C)(C)O)c(=O)n4C)n2)C[C@@H](C2CC2)O1 [Example 21b, 5-((5-chloro-2-((2R,6R)-2-cyclopropyl-6-methylmorpholino)pyrimidin-4-yl)amino)-3-(3-hydroxy-3-methylbutyl)-1-methyl-1,3-dihydro-2H-benzo[d]imidazol-2-one]			7.01		1.38 µM	
Cn1c(=O)n(CCC(C)(C)O)c2cc(Nc3nc(N4CCOC(C(F)(F)F)C4)ncc3Cl)ccc21 (stereo not drawn) [Example 28b, 5-((5-chloro-2-(2-(trifluoromethyl)morpholino)pyrimidin-4-yl)amino)-3-(3-hydroxy-3-methylbutyl)-1-methyl-1,3-dihydro-2H-benzo[d]imidazol-2-one]			6.55		2.19 µM	
Cc1cc(C)n(-c2cc(Nc3ccc4c(c3)n(CCC(C)(C)O)c(=O)n4C)c(Cl)cn2)n1 [Example 30a, 5-((5-chloro-2-(3,5-dimethyl-1H-pyrazol-1-yl)pyridin-4-yl)amino)-3-(3-hydroxy-3-methylbutyl)-1-methyl-1,3-dihydro-2H-benzo[d]imidazol-2-one]			6.09		3.09 µM	
Cn1c(=O)n(CCC(C)(C)O)c2cc(Nc3nc(N4CCC(C(F)(F)F)CC4)ncc3Cl)ccc21 [Example 35g, 5-((5-chloro-2-(4-(trifluoromethyl)piperidin-1-yl)pyrimidin-4-yl)amino)-3-(3-hydroxy-3-methylbutyl)-1-methyl-1,3-dihydro-2H-benzo[d]imidazol-2-one]			6.12		2.24 µM	
CC(C)(O)CCn1c(=O)n(CCC(C)(C)O)c2cc(Nc3nc(N4CC(C)(C)OC(C)(C)C4)ncc3Cl)ccc21 [Example 35k, 5-((5-chloro-2-(2,2,6,6-tetramethylmorpholino)pyrimidin-4-yl)amino)-1,3-bis(3-hydroxy-3-methylbutyl)-1,3-dihydro-2H-benzo[d]imidazol-2-one]			6.56		1.48 µM	
C[C@@H]1CN(c2ncc(Cl)c(Nc3ccc4c(c3)n(CCC(C)(C)O)c(=O)n4C)n2)C[C@H](C)N1C [Example 35l, 5-((5-chloro-2-((3S,5R)-3,4,5-trimethylpiperazin-1-yl)pyrimidin-4-yl)amino)-3-(3-hydroxy-3-methylbutyl)-1-methyl-1,3-dihydro-2H-benzo[d]imidazol-2-one]			6.76		1.51 µM	
Cn1c(=O)n(CCC(C)(C)O)c2cc(Nc3nc(N4[C@@H]5CCC[C@H]4CC5)ncc3Cl)ccc21 [Example 35m, 5-((2-((1R,5S)-8-azabicyclo[3.2.1]octan-8-yl)-5-chloropyrimidin-4-yl)amino)-3-(3-hydroxy-3-methylbutyl)-1-methyl-1,3-dihydro-2H-benzo[d]imidazol-2-one]			6.81		0.741 µM	
CC(C)(O)CCn1c(=O)n(CCC(C)(C)O)c2ncc(Nc3nc(N4CC(C)(C)OC(C)(C)C4)ncc3Cl)cc21 [Example 35q, 6-((5-chloro-2-(2,2,6,6-tetramethylmorpholino)pyrimidin-4-yl)amino)-1,3-bis(3-hydroxy-3-methylbutyl)-1,3-dihydro-2H-imidazo[4,5-b]pyridin-2-one]			6.63		1.7 µM	
Cn1c(=O)n(CCC(C)(C)O)c2cc(Nc3nc(N4C5CC6CC(C5)CC4C6)ncc3Cl)ccc21 [Example 35t, 5-((2-((1r,3r,5r,7r)-2-azaadamantan-2-yl)-5-chloropyrimidin-4-yl)amino)-3-(3-hydroxy-3-methylbutyl)-1-methyl-1,3-dihydro-2H-benzo[d]imidazol-2-one]			6.46		2.34 µM	
